Reference: the supplement of paper PMC11451515

What was measured:
Conditions in all cases: 48 h
NOMO1 [1] = assay: AUC of viability dose-response curve (% viability x log10 dose units); higher = less sensitive
How it was run: (§1)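 Viability of medium-adapted leukemia cells was measured by CellTiter-Glo One luminescence after 48 h at 37°C with library compounds in DMSO. Doses were 11 threefold steps from 47 μM to 0.79 nM, in 1536-well plates at 500 or 1000 cells/well. Signals were normalised per plate to DMSO and cell-free wells and fitted with a four-parameter log-logistic model on log10 dose. Area under the curve was integrated by trapezoidal rule, with curves exceeding full viability scaled and failed quality-control curves removed.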

P12-Ichikawa [2] = assay: as above
How it was run: as §1

SEM cells [3] = assay: as above
How it was run: as §1

NOMO1 [4] = assay: cell viability relative to DMSO control; higher = less cytotoxic
How it was run: (§2)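 Library compounds in DMSO were pin-dosed in an 11-point threefold series (47 μM to 0.79 nM) onto leukemia cells in 1536-well plates (5 μl). Plates held 500 cells/well of NOMO1 or SEM or 1000 cells/well of P12-Ichikawa, each adapted for at least four passages in each medium. Luminescence was read with CellTiter-Glo One after 48 h at 37°C. Viability means the per-plate percentage relative to DMSO wells, using cell-free wells as background.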

P12-Ichikawa [5] = assay: as above
How it was run: as §2

SEM cells [6] = assay: as above
How it was run: as §2

O=C(CCc1ccc(O)cc1)c1c(O)cc(O)cc1O
AUC of viability dose-response curve
Conditions	NOMO1 [1]	P12-Ichikawa [2]	SEM cells [3]
HPLM + 10% dialyzed FBS	457	459	433
RPMI 5 mM glucose + 10% FBS	460	467	438
RPMI 5 mM glucose + 10% dialyzed FBS	455	459	434

cell viability [%]
Conditions	NOMO1 [4]	P12-Ichikawa [5]	SEM cells [6]
HPLM + 10% dialyzed FBS, 0.000781 µM	84.2	94.5	74
HPLM + 10% dialyzed FBS, 0.00234 µM	95.5	106	79.7
HPLM + 10% dialyzed FBS, 0.00702 µM	108	104	92
HPLM + 10% dialyzed FBS, 0.0211 µM	112	99.5	95.5
HPLM + 10% dialyzed FBS, 0.0632 µM	93.8	103	89.1
HPLM + 10% dialyzed FBS, 0.19 µM	104	111	95.9
HPLM + 10% dialyzed FBS, 0.569 µM	100	110	115
HPLM + 10% dialyzed FBS, 1.71 µM	125	116	94.5
HPLM + 10% dialyzed FBS, 5.12 µM	116	112	57
HPLM + 10% dialyzed FBS, 15.4 µM	93	103	107
HPLM + 10% dialyzed FBS, 46.1 µM	36.8	110	100
RPMI 5 mM glucose + 10% FBS, 0.000781 µM	91.5	89.5	80.8
RPMI 5 mM glucose + 10% FBS, 0.00234 µM	98.6	91	102
RPMI 5 mM glucose + 10% FBS, 0.00702 µM	105	100	102
RPMI 5 mM glucose + 10% FBS, 0.0211 µM	102	103	85.6
RPMI 5 mM glucose + 10% FBS, 0.0632 µM	98	90.2	86.3
RPMI 5 mM glucose + 10% FBS, 0.19 µM	99.5	101	97.7
RPMI 5 mM glucose + 10% FBS, 0.569 µM	96.1	106	105
RPMI 5 mM glucose + 10% FBS, 1.71 µM	106	104	99.4
RPMI 5 mM glucose + 10% FBS, 5.12 µM	98.3	105	40.2
RPMI 5 mM glucose + 10% FBS, 15.4 µM	101	107	105
RPMI 5 mM glucose + 10% FBS, 46.1 µM	38.3	91.1	106
RPMI 5 mM glucose + 10% dialyzed FBS, 0.000781 µM	82.4	81.6	96.5
RPMI 5 mM glucose + 10% dialyzed FBS, 0.00234 µM	101	92	90.9
RPMI 5 mM glucose + 10% dialyzed FBS, 0.00702 µM	94.5	93	89.7
RPMI 5 mM glucose + 10% dialyzed FBS, 0.0211 µM	103	96.7	90
RPMI 5 mM glucose + 10% dialyzed FBS, 0.0632 µM	98.1	100	83.6
RPMI 5 mM glucose + 10% dialyzed FBS, 0.19 µM	87.1	98.7	105
RPMI 5 mM glucose + 10% dialyzed FBS, 0.569 µM	98.9	103	88.1
RPMI 5 mM glucose + 10% dialyzed FBS, 1.71 µM	103	94.3	91
RPMI 5 mM glucose + 10% dialyzed FBS, 5.12 µM	101	102	62.3
RPMI 5 mM glucose + 10% dialyzed FBS, 15.4 µM	106	90.4	102
RPMI 5 mM glucose + 10% dialyzed FBS, 46.1 µM	74.7	99.4	102
